# Reference: US7271187B2, “Compositions and methods for promoting tissue regeneration” (priority 2000, dated 2007)
# Entries after “also recorded” stand apart in the source; their conditions may differ.
# Legend:
# [1] = tested on: Fischer F344 female rats, spinal cord contusion injury; assay: Spinal cord contusion injury, injection of bone marrow cells from treated donors into the cavity; type: in vivo, rat; conditions: recipients of bone marrow cells from donors given 100 mg/kg orally
# Excerpt: In some embodiments of the invention, cells, preferably bone marrow cells, can be transferred from a first animal treated according to methods of the invention to a site of chronic spinal cord injury in the first animal or in a second animal.
# Fischer F344 female rats (Taconic, Germantown N.Y.) weighing 175-200 g were subjected to 25 mm weight drop contusion injury as previously described (Gruner J A, J. Neurotrauma, 1992 Summer; 9(2):123-8) with slight modifications. Briefly, under isoflurane anethesia, a laminectomy exposing the T8-9 spinal cord segment was performed and a rod weighing 10 g was dropped on the exposed cord from 25 mm height. The rod diameter at its end (where cord-rod interaction takes place) is 2.8 mm. A total of 12 rats were injured. Four animals were used as donor animals, eight as recipients. Two donor animals were administered N-[4-[(4-fluorophenyl)sulfonyl]phenyl]acetamide at a dose of 100 mg/kg orally, and two other animals were treated with vehicle (cyclodextrin, 45% in distilled sterile water). […]
# Doseage levels of with N-[4-[(4-fluorophenyl)sulfonyl]phenyl]acetamide was 100 mg/kg at 20 mg/ml. No difference in cavity size was detected comparing saline treated animals and animals treated with bone marrow cells from vehicle treated donors. […]
# [2] = tested on: cortical neurons on aged astrocytes; assay: Growth of cortical neurons on aged astrocytes, count of tubulin-positive neurons; type: cell-based, Sprague Dawley rat; conditions: 1 week after treatment; for Number of Neurons, Well 2 / Number of Neurons, Well 4: control 74; for Number of Neurons, Well 3: control 89; for Number of Neurons, mean: control 82.50
# Protocol: Astrocytes: postnatal day 2 (P2) Sprague Dawley rat cortices were aseptically dissected and trypsinized for 20 min at 37° C. in 0.25% trypsin-EDTA (GIBCO) and DNAse (0.2 mg/ml, Worthington). Enzyme action was stopped by the addition of soybean trypsin inhibitor (SIGMA)) and DNAse. Tissue was dissociated into single cell suspension by trituration with a 5 ml pipette, filtered though a 40 μm nylon filter and centrifuged at 500×g for 3 minutes. The pellet was taken up in medium (DMEM/10% fetal bovine serum) and cells were plated into poly-D-lysine (10 μg/ml, SIGMA) T75 flasks (one flask/cortex). After 23 days, astrocytes were trypsinized and replated at a density of 500,000 cells per well into poly-D-lysine-coated 24 well plates. Cultures were grown for an additional 20 days in order to let astrocytes mature. This maturation is known to make the astrocytes less permissive for neurite outgrowth (see G. M. Smith, et al., Developmental Biology, 138, 377-390 (1990), and G. M. Smith and J. Silver, Progress in Brain Research, Vol. 78, Chapt. 46, D. M. Cash and J. R. Sladek, ed., Elsevier, 1988.
# Cortical neurons: mixed cortical cells were dissociated from embryonic day 18 Sprague Dawley rat embryos as described for astrocytes. In order to obtain more pure neuonal cultures, cells were subjected to a differential adhesion by pre-plating them on a non-coated bacterial dish (100 mm diameter) for 1 hour. Non-neuronal cells stick to this plate while neurons stay in the supernatant. Neurons were added to the aged astrocytes at a density of 10,000 cells/well in DEME/10% fetal bovine serum. One day later, the cultures were treated with 1 μg/ml and 10 μg/ml of N-4[4-[(4-fluorophenyl)sulfonyl]phenyl]acetamide. 1 week after treatment, cultures were fixed and immunostained with monoclonal anti-tubulin antibody (SIGMA, 1:800 diluted), followed by rhodamine-conjugated goat-anti-mouse secondary (1:100 dilution). Tubulin labels axons and dentrites.
# Analysis: Tubulin-positive cell bodies with a process at least two cell diameters long were counted in 5 visual fields under 10× magnification with a Nikon Eclipse 2000 inverted microscope. Results were expressed as means of quadruplicate wells+/−SEM and are shown in Table I. Any patent application to which this application claims priority is incorporated by reference herein in its entirety.
smiles,measurement,setting,value
CC(=O)Nc1ccc(S(=O)(=O)c2ccc(F)cc2)cc1 [N-[4-[(4-fluorophenyl)sulfonyl]phenyl]acetamide],cavity size at the injury site,"[1]; four weeks after cell injection, vs saline treated animals",decrease in cavity size at the injury site (approximately half the size)
same,Nestin immunoreactive cells at the edge of the injury cavity,"[1]; vs saline or vehicle treated donors, 100 mg/kg",Nestin immunoreactive cells are observed at the edge of the injury cavity; also recorded: significant increase in cells immunoreactive to nestin
same,"Number of Neurons, Well 2",[2]; 1 μg/ml,103
same,"Number of Neurons, Well 4",[2]; 1 μg/ml,176
same,"Number of Neurons, Well 3",[2]; 1 μg/ml,171
same,"Number of Neurons, Well 1","[2]; 1 μg/ml, control 93",132
same,"Number of Neurons, mean","[2]; 1 μg/ml, mean of quadruplicate wells",145.50
same,"Number of Neurons, Well 2",[2]; 10 μg/ml,129
same,"Number of Neurons, Well 4",[2]; 10 μg/ml,133
same,"Number of Neurons, Well 3",[2]; 10 μg/ml,173
same,"Number of Neurons, mean","[2]; 10 μg/ml, mean of wells",145.00
